For assay [1], the system named is HCV replicon I389luc-ubi-neo/NS3-3′/ET in ET (Huh-lucubineo-ET) cells. Description: Replicon assay (Biological Example 2), luciferase readout. In kind it is cell-based. As to conditions: Hepatitis C virus. Put shortly:
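EC50 values come from Hill fits of % inhibition of replicon-driven firefly luciferase, relative to no-compound wells. Compounds were serially diluted (10 points, 3-fold, 0.1 nM–50 μM final, 0.5% DMSO) onto ET replicon cells and read after 48 h.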
On the technique in general: In antiviral work, replicon cells carry a viral genome segment that copies itself.

For a further assay, the target named is T1, HCV polymerase (Hepatitis C virus genotype 1b, UniProt Q9WMX2).
T1 construct: (His)6 (C); made in house; host or cells: XL-1 cells (E. coli, by own knowledge)
Description: Polymerase assay of Biological Example 1 (IC50 values of Table 3). It is filed as biochemical. As to conditions: IC50 values of Table 3, polymerase assay of Biological Example 1; read-out: NS5B-enzyme3.

[2] abbreviates: ET cells, luciferase activity 48 hours after compound.

The structures appear in SMILES notation. Some results are limits rather than exact numbers.

25 compounds from US9498483B2, “2,3,5-trisubstituted thiophene compounds and uses thereof” (priority 2010, dated 2016) can be followed below.

As for `CC(C)(C)C#Cc1cc(N2C(=O)[C@H](CC(O)CO)OC[C@H]2C2CCCCC2)c(C(=O)O)s1` (stereo partly drawn) [Compound 331, 3-[(2S,5R)-5-Cyclohexyl-2-(2,3 dihydroxy-propyl)-3-oxo-morpholin-4-yl]-5-(3,3-dimethyl-but-1-ynyl)-thiophene-2 carboxylic acid], the IC50 is 100 to 5000 nM in assay [1] (between 100 nM and 5.0 uM); 8 nM on HCV polymerase.
Consider `CC(C)(C)C#Cc1cc(N2C(=O)CN(S(=O)(=O)c3c[nH]cn3)C[C@H]2C2CCCCC2)c(C(=O)O)s1` [Compound 247, 3-[(R)-2-Cyclohexyl-4-(1H-imidazole-4-sulfonyl)-6-oxo-piperazin-1-yl]-5-(3,3-dimethyl-but-1-ynyl)-thiophene-2-carboxylic acid], for which the IC50 was at most 100 nM in assay [1] (setting [2]) and 2 nM on HCV polymerase.
Turning to `CC(C)(C)C#Cc1cc(N2C(=O)CCCC2C2CCCCC2)c(C(=O)O)s1` (centres unmarked) [Compound 19, 3-(2-Cyclohexyl-6-oxo-piperidin-1-yl)-5-(3,3-dimethyl-but-1-ynyl)-thiophene-2-carboxylic acid], the IC50 is at most 100 nM in assay [1] (setting [2]) and 15 nM on HCV polymerase.
With `O=C(Cc1ccccc1)NC1CC(=O)N(c2cc(-c3ccccc3)sc2C(=O)O)C(C2CCCCC2)C1` (centres unmarked) [Compound 20, 3-(2-Cyclohexyl-6-oxo-4-phenylacetylamino-piperidin-1-yl)-5-phenyl-thiophene-2-carboxylic acid], the results for the IC50 (in assay [1] (setting [2]); at HCV polymerase) were at least 5000 nM and 128 nM, respectively.
Take `CC(C)c1ccc(S(=O)(=O)N2CC(=O)N(c3cc(C#CC(C)(C)C)sc3C(=O)O)[C@H](C3CCCCC3)C2)cc1` [Compound 176, 3-[(R)-2-Cyclohexyl-4-(4-isopropyl-benzenesulfonyl)-6-oxo-piperazin-1-yl]-5-(3,3-dimethyl-but-1-ynyl)-thiophene-2-carboxylic acid]: the IC50 in assay [1] (setting [2]) is at most 100 nM; on HCV polymerase it was 1410 nM.
For `COc1cc(F)c(S(=O)(=O)N2CC(=O)N(c3cc(C#CC(C)(C)C)sc3C(=O)O)[C@H](C3CCCCC3)C2)cc1OC` [Compound 276, 3-[(R)-2-Cyclohexyl-4-(2-fluoro-4,5-dimethoxy-benzenesulfonyl)-6-oxo-piperazin-1-yl]-5-(3,3-dimethyl-but-1-ynyl)-thiophene-2-carboxylic acid], in that order: at most 100 nM and 2 nM.
In the case of `C[C@@H]1CCC[C@H](C)N1c1ccc(S(=O)(=O)N2CC(=O)N(c3cc(-c4ccccc4)sc3C(=O)O)C(C3CCCCC3)C2)cn1` (stereo partly drawn) [Compound 126, 3-[2-Cyclohexyl-4-((2S,6R)-2,6-dimethyl-3,4,5,6-tetrahydro-2H-[1,2′]bipyridinyl-5′-sulfonyl)-6-oxo-piperazin-1-yl]-5-phenyl-thiophene-2-carboxylic acid], the IC50 was at most 100 nM in assay [1] (setting [2]) and 11 nM at HCV polymerase.
For `Cc1ccc(-c2cc(N3C(=O)CN(S(=O)(=O)c4ccc(N5C[C@H]6C[C@@H]5CO6)nc4)C[C@H]3C3CCCCC3)c(C(=O)O)s2)cc1` [Compound 289, 3-{(R)-2-Cyclohexyl-4-[(1R,4R)-6-(2-oxa-5-aza-bicyclo[2.2.1]hept-5-yl)-pyridine-3-sulfonyl]-6-oxo-piperazin-1-yl}-5-p-tolyl-thiophene-2-carboxylic acid], in that order: at most 100 nM and 1 nM.
For `N#Cc1ccccc1-c1ccc(S(=O)(=O)N2CC(=O)N(c3cc(-c4ccccc4)sc3C(=O)O)[C@H](C3CCCCC3)C2)cn1` [Compound 213, 3-{(R)-4-[6-(2-Cyano-phenyl)-pyridine-3-sulfonyl]-2-cyclohexyl-6-oxo-piperazin-1-yl}-5-phenyl-thiophene-2-carboxylic acid], in that order: at most 100 nM and 1 nM.
In the same order, the values of `CC(C)(C)C#Cc1cc(N2C(=O)[C@H](O)CC[C@H]2C2CCCCC2)c(C(=O)O)s1` [Compound 334, 3-((3R,6S)-6-Cyclohexyl-3-hydroxy-2-oxo-piperidin-1-yl)-5-(3,3-dimethyl-but-1-ynyl)-thiophene-2-carboxylic acid] are at most 100 nM and 3 nM.
As to `CC(C)(C)C#Cc1cc(N2C(=O)CN(S(=O)(=O)c3ccccc3OC(F)(F)F)C[C@H]2C2CCCCC2)c(C(=O)O)s1` [Compound 249, 3-[(R)-2-Cyclohexyl-6-oxo-4-(2-trifluoromethoxy-benzenesulfonyl)-piperazin-1-yl]-5-(3,3-dimethyl-but-1-ynyl)-thiophene-2-carboxylic acid], the IC50 in assay [1] (between 100 nM and 5.0 uM) was 100 to 5000 nM; at HCV polymerase it was 19 nM.
Regarding `Cc1ccc(-c2cc(N3C(=O)CN(S(=O)(=O)c4cnn(C)c4)C[C@H]3C3CCCCC3)c(C(=O)O)s2)cc1` [Compound 295, 3-[(R)-2-Cyclohexyl-4-(1-methyl-1H-pyrazole-4-sulfonyl)-6-oxo-piperazin-1-yl]-5-p-tolyl-thiophene-2-carboxylic acid], the results for the IC50 (in assay [1] (setting [2]); at HCV polymerase) were at most 100 nM and 4 nM, respectively.
On to `O=C(O)c1sc(-c2ccccc2)cc1N1C(=O)CN(S(=O)(=O)c2ccc(OC(F)F)cc2)CC1C1CCCCC1` (centres unmarked) [Compound 106, 3-[2-Cyclohexyl-4-(4-difluoromethoxy-benzenesulfonyl)-6-oxo-piperazin-1-yl]-5-phenyl-thiophene-2-carboxylic acid], for which the IC50 in assay [1] (between 100 nM and 5.0 uM) was 100 to 5000 nM; at HCV polymerase, 14 nM.
As to `Cn1ccc2cccc(S(=O)(=O)N3CC(=O)N(c4cc(-c5ccccc5)sc4C(=O)O)C(C4CCCCC4)C3)c21` (centres unmarked) [Compound 57, 3-[2-Cyclohexyl-4-(1-methyl-1H-indole-7-sulfonyl)-6-oxo-piperazin-1-yl]-5-phenyl-thiophene-2-carboxylic acid], the figures for the IC50 (in assay [1] (setting [2]); on HCV polymerase) were at least 5000 nM and 260 nM, respectively.
Take `O=C1CC(=O)N(c2cc(-c3ccccc3)sc2C(=O)O)C(C2CCCCC2)C1` (centres unmarked) [Compound 9, 3-(2-Cyclohexyl-4,6-dioxo-piperidin-1-yl)-5-phenyl-thiophene-2-carboxylic acid]: the IC50 is at least 5000 nM in assay [1] (setting [2]) and 80 nM at HCV polymerase.
In the case of `O=C(O)c1sc(-c2ccccc2)cc1N1C(=O)CN(S(=O)(=O)c2ccccc2)CC1C1CCCCC1` (centres unmarked) [Compound 52, 3-(4-Benzenesulfonyl-2-cyclohexyl-6-oxo-piperazin-1-yl)-5-phenyl-thiophene-2-carboxylic acid], the IC50 in assay [1] (between 100 nM and 5.0 uM) is 100 to 5000 nM; at HCV polymerase, 15 nM.
On to `CC(C)S(=O)(=O)N1CC(=O)N(c2cc(-c3ccccc3)sc2C(=O)O)C(C2CCCCC2)C1` (centres unmarked) [Compound 37, 3-[2-Cyclohexyl-6-oxo-4-(propane-2-sulfonyl)-piperazin-1-yl]-5-phenyl-thiophene-2-carboxylic acid], for which the IC50 in assay [1] (between 100 nM and 5.0 uM) was 100 to 5000 nM; at HCV polymerase, 72 nM.
With `O=C(O)c1sc(-c2ccccc2)cc1N1C(=O)CN(S(=O)(=O)c2ccc(N3CC4CC3CO4)nc2)C[C@H]1C1CCCCC1` (stereo partly drawn) [Compound 217, 3-{(R)-2-Cyclohexyl-4-[6-(2-oxa-5-aza-bicyclo[2.2.1]hept-5-yl)-pyridine-3-sulfonyl]-6-oxo-piperazin-1-yl}-5-phenyl-thiophene-2-carboxylic acid], the IC50 in assay [1] (setting [2]) was at most 100 nM; on HCV polymerase, 1 nM.
For `CN1CCC(N2CC(=O)N(c3cc(-c4ccccc4)sc3C(=O)O)[C@H](C3CCCCC3)C2)CC1` [Compound 271, 3-[(R)-2-Cyclohexyl-4-(1-methyl-piperidin-4-yl)-6-oxo-piperazin-1-yl]-5-phenyl-thiophene-2-carboxylic acid], in that order: at least 5000 nM and 2470 nM.
Turning to `CC(C)(C)C#Cc1cc(N2C(=O)CN(S(=O)(=O)c3cccnc3)C[C@H]2C2CCCCC2)c(C(=O)O)s1` [Compound 192, 3-[(R)-2-Cyclohexyl-6-oxo-4-(pyridine-3-sulfonyl)-piperazin-1-yl]-5-(3,3-dimethyl-but-1-ynyl)-thiophene-2-carboxylic acid], the IC50 in assay [1] (setting [2]) was at most 100 nM; on HCV polymerase it was 3 nM.
Consider `C[C@H]1[C@@H](C2CCCCC2)N(c2cc(C#CC(C)(C)C)sc2C(=O)O)C(=O)N1C` [Compound 237, 3-((4S,5R)-5-Cyclohexyl-3,4-dimethyl-2-oxo-imidazolidin-1-yl)-5-(3,3-dimethyl-but-1-ynyl)-thiophene-2-carboxylic acid], for which the IC50 in assay [1] (between 100 nM and 5.0 uM) is 100 to 5000 nM; on HCV polymerase, 42 nM.
In the same order, the values of `CC(C)(C)c1ccc(S(=O)(=O)N2CC(=O)N(c3cc(-c4ccccc4)sc3C(=O)O)C(C3CCCCC3)C2)cc1` (centres unmarked) [Compound 105, 3-[4-(4-tert-Butyl-benzenesulfonyl)-2-cyclohexyl-6-oxo-piperazin-1-yl]-5-phenyl-thiophene-2-carboxylic acid] are 100 to 5000 nM and 2 nM.
In the same order, the values of `O=C(O)c1sc(-c2ccccc2)cc1N1C(=O)CC(O)CC1C1CCCCC1` (centres unmarked) [Compound 12] are 100 to 5000 nM and 45 nM.
As for `O=C(O)c1sc(-c2ccccc2)cc1N1C(=O)CN(S(=O)(=O)c2cccc(Cl)c2Cl)CC1C1CCCCC1` (centres unmarked) [Compound 111, 3-[2-Cyclohexyl-4-(2,3-dichloro-benzenesulfonyl)-6-oxo-piperazin-1-yl]-5-phenyl-thiophene-2-carboxylic acid], the IC50 in assay [1] (setting [2]) was at least 5000 nM; at HCV polymerase it was 243 nM.
For `CN(C)[C@H]1CCN(c2ccc(S(=O)(=O)N3CC(=O)N(c4cc(-c5ccccc5)sc4C(=O)O)[C@H](C4CCCCC4)C3)cn2)C1` [Compound 156, 3-{(R)-2-Cyclohexyl-4-[6-((S)-3-dimethylamino-pyrrolidin-1-yl)-pyridine-3-sulfonyl]-6-oxo-piperazin-1-yl}-5-phenyl-thiophene-2-carboxylic acid], in that order: at most 100 nM and 1 nM.
